Tests used:
[1] = molecular target: T1, cell-surface PDGF receptors (Rattus norvegicus, UniProt Q05030); assay: Inhibition of 125I-PDGF-BB binding to rat SMCs; conditions: for 125I PDGF-BB Bound (CPM): specific cpm, nonspecific subtracted, negative control 10006
T1 construct: endogenous in cells; host or cells: rat smooth muscle cells (SMCs), monolayer culture
Experimental: (§1) NNC92-0270 was analyzed for the ability to inhibit ^125 I-PDGF-BB binding to monolayers of rat SMCs. To assay for inhibition of ^125 I-PDGF-BB binding to rat SMCs, the SMCs were plated at approximately 20,000 cells/well in 24-well culture dishes. The cells were used for assay 2-7 days after plating. The test compound was diluted in binding media (500 ml Ham's F-12 (Gibco BRL), 12 ml 1M Hepes pH 7.4, 5 ml 100×PSN (Gibco BRL), 1 gm rabbit serum albumin (Sigma Chemical Co., St. Louis, Mo.) to the concentrations shown in Table 2, then added to the SMCs (1 ml/well) in triplicate. To the wells was then added 50 μl of a ^125 I-PDGF-BB stock solution. Binding media alone was used as the negative control, and the addition of 200 ng/ml of PDGF-BB was used to determine nonspecific binding for ^125 I-PDGF-BB. The cells were incubated for approximately 11/2 hours at 4° C., then washed with binding media to remove unbound ligand. The cells were then incubated with extraction buffer (20 mM Tris-HCl, pH 8.0, 100 mM NaCl, 1 mM EDTA, 0.5% Nonident P-40, 0.5% sodium deoxycholate, 10 mM NaI, 1% bovine serum albumin), and the extracts were harvested and counted in a gamma counter. The data are presented as specific cpm bound for ^125 I-PDGF-BB. Nonspecific binding, determined by the addition of 200 ng/ml of unlabeled PDGF-BB, was 853 cpm, and has been subtracted from the data presented.

[2] = molecular target: T1, cell-surface PDGF receptors; assay: Inhibition of 125I-PDGF-BB binding to rat SMCs in the presence and absence of human serum; conditions: for CPM Bound, Binding Media + 10% Human Serum / CPM Bound, Binding Media: total CPM bound; for CPM Bound, Binding Media + 10% Human Serum: neg. control 1152; for CPM Bound, Binding Media: neg. control 1990
Experimental: as §1
NNC92-0270 was subsequently analyzed for its ability to inhibit ^125 I-PDGF-BB binding to rat SMCs when the radioligand was added to the cells in the presence of 10% human serum. The rat SMCs were plated into 24-well culture dishes and assayed as described above. The test compound was diluted to the concentrations shown in Table 3 in either binding media alone, or binding media containing 10% human serum, and 1 ml aliquots added to the test cells in triplicate. Fifty microliters of a 20×stock solution of ^125 I-PDGF-BB was added to each well. The cells were incubated for 2.5 hours at 4 ° C., washed with binding media to remove unbound ligand, and harvested with extraction buffer. The extracts were then counted in a gamma counter to determine CPM bound. […] It should be noted that the binding of ^125 I-PDGF-BB was lower in the negative control sample containing the human serum, over the negative control sample with binding media alone. The results are presented as total CPM bound.

[3] = test system: baboon smooth muscle cells; assay: Inhibition of PDGF-BB mitogenic activity on baboon smooth muscle cells ([3H] thymidine incorporation); format: cell-based; conditions: for 3H Thymidine (CPM Incorporated), (-) Heparin: no heparin, control 1701
Experimental: NNC92-0270 was analyzed for the ability to inhibit the mitogenic activity of PDGF on baboon smooth muscle cells. All mitogenesis assays performed on baboon vascular smooth muscle cells (BVSMCs) were done on primary cultures of cells between passages 13 and 20 in culture. The initial cultures were established from outgrowth of aortic tissue explants. Baboon smooth muscle cells were plated at approximately 20,000 cells per well, in DMEM supplemented with 10% fetal calf serum, into 24-well culture dishes. One day prior to use the culture media was removed, and 1 ml of Mito Media (Table 5) was added to each well to allow the cells to become quiescent. At the time of the experiment the cells were stimulated with PDGF-BB. […] 20× stock solutions were made for each of the PDGF concentrations by dilution in 10 mM acetic acid containing 0.25% albumin, and 50 ul PDGF or dilution vehicle alone was added to the culture wells.
To analyze the activity of NNC92-0270 to neutralize PDGF-BB mitogenic activity, 1 ng/ml of PDGF was added to wells along with dilutions of NNC92-0270. The cells were incubated with the test samples for approximately 20 hours at 37 ° C. Fifty microliters of a 20× stock solution of [3H] Thymidine was then added to each well to give a final concentration of 1 μCi/ml. The cells were incubated for 4 hours at 37 ° C., washed with PBS, then harvested with trypsin and counted for [^3 H] thymidine incorporation in a Wallac (Turku, Finland) Betaplate™ liquid scintillation counter.
NNC92-0270 was incubated with 1 ng/ml of PDGF-BB in the presence of 0.5 U/ml of unfractionated heparin. The cells were pulse labeled with [^3 H] thymidine as described above and the level of [^3 H] thymidine determined.

T1 sequence (Q05030 32-1097): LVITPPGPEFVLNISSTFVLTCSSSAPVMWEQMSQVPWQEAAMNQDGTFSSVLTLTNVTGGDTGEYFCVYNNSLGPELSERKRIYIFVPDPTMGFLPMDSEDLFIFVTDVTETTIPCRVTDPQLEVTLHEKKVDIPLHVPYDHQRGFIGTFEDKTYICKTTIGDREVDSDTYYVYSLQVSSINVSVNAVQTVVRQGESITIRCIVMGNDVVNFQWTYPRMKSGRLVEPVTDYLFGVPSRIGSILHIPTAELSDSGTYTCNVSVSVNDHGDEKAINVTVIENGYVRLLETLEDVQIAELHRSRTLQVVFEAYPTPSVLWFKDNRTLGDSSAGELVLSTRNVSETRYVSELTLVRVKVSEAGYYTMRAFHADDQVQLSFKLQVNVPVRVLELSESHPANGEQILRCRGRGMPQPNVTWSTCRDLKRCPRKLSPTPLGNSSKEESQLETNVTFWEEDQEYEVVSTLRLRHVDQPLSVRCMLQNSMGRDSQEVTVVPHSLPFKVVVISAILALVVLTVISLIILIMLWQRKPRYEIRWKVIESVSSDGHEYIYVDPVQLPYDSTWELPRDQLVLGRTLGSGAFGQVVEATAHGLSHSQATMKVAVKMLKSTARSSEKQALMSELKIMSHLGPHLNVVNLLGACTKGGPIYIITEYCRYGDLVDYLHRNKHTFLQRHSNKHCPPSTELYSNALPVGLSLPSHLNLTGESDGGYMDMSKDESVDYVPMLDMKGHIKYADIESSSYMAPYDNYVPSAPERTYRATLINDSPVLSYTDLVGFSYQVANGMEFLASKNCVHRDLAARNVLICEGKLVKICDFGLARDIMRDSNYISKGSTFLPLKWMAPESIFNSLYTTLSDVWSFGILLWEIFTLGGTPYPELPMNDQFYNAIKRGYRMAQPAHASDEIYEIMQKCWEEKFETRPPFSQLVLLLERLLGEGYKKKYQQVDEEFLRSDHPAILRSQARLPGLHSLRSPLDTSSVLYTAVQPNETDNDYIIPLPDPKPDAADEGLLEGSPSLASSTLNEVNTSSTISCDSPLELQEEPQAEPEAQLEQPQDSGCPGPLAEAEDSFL

With `O=C(NN1CCCCC1)NS(=O)(=O)c1ccc(CCNC(=O)c2[nH]c3ccccc3c2OCc2ccccc2)cc1` [NNC92-0270] the “125I PDGF-BB Bound (CPM)” value ([1]; 6.2 μM) was 5228 CPM, the “125I PDGF-BB Bound (CPM)” value ([1]; 12.5 μM) was 2823 CPM and the “125I PDGF-BB Bound (CPM)” value ([1]; 25 μM) was 920 CPM. The “125I PDGF-BB Bound (CPM)” value ([1]; 50 μM) was 532 CPM, the “125I PDGF-BB Bound (CPM)” value ([1]; 100 μM) was 378 CPM and the remaining activity at 6.2 µM ([1]; 1.5 h, 6.2 μM, read-out: % Control Binding) was 52%. The remaining activity at 12.5 µM ([1]; 1.5 h, 12.5 μM, read-out: % Control Binding) was 28%, the remaining activity at 25 µM ([1]; 1.5 h, 25 μM, read-out: % Control Binding) was 9% and the remaining activity at 50 µM ([1]; 1.5 h, 50 μM, read-out: % Control Binding) was 5%. For the same molecule, the remaining activity at 100 µM ([1]; 1.5 h, 100 μM, read-out: % Control Binding) was 4%, the “Inhibition of PDGF-BB binding to cell-surface PDGF receptors (in words)” value ([1]; rat SMCs) was “potent inhibitor” and the remaining activity at 12.5 µM ([2]; 12.5 μM, 10% human serum, read-out: % CB (% Control Binding), Binding Media + 10% Human Serum) was 30%. For the same molecule, the “CPM Bound, Binding Media + 10% Human Serum” value ([2]; 12.5 μM, 10% human serum) was 349 CPM, the remaining activity at 12.5 µM ([2]; 12.5 μM, binding media alone, read-out: % CB (% Control Binding), Binding Media) was 36% and the “CPM Bound, Binding Media” value ([2]; 12.5 μM, binding media alone) was 722 CPM. For the same molecule, the remaining activity at 25 µM ([2]; 25 μM, 10% human serum, read-out: % CB (% Control Binding), Binding Media + 10% Human Serum) was 21%, the “CPM Bound, Binding Media + 10% Human Serum” value ([2]; 25 μM, 10% human serum) was 244 CPM and the remaining activity at 25 µM ([2]; 25 μM, binding media alone, read-out: % CB (% Control Binding), Binding Media) was 30%. For the same molecule, the “CPM Bound, Binding Media” value ([2]; 25 μM, binding media alone) was 605 CPM, the remaining activity at 50 µM ([2]; 50 μM, 10% human serum, read-out: % CB (% Control Binding), Binding Media + 10% Human Serum) was 14% and the “CPM Bound, Binding Media + 10% Human Serum” value ([2]; 50 μM, 10% human serum) was 162 CPM. For the same molecule, the remaining activity at 50 µM ([2]; 50 μM, binding media alone, read-out: % CB (% Control Binding), Binding Media) was 23%, the “CPM Bound, Binding Media” value ([2]; 50 μM, binding media alone) was 467 CPM and the “Potency for inhibiting 125I-PDGF-BB binding in 10% human serum compared to binding media alone (in words)” value ([2]; rat SMCs) was “approximately equal potency”. For the same molecule, the “3H Thymidine (CPM Incorporated), (+) 0.5 U/ml Heparin” value (“3H Thymidine … (+) 0.5 U/ml Heparin” below) ([3]; 6.2 μM with 1 ng/ml PDGF-BB and 0.5 U/ml heparin) was 1007 CPM, the “3H Thymidine (CPM Incorporated), (-) Heparin” value (“3H Thymidine … (-) Heparin” below) ([3]; 6.2 μM with 1 ng/ml PDGF-BB) was 1378 CPM and the “3H Thymidine … (+) 0.5 U/ml Heparin” value ([3]; 12.5 μM with 1 ng/ml PDGF-BB and 0.5 U/ml heparin) was 586 CPM. For the same molecule, the “3H Thymidine … (-) Heparin” value ([3]; 12.5 μM with 1 ng/ml PDGF-BB) was 870 CPM, the “3H Thymidine … (+) 0.5 U/ml Heparin” value ([3]; 25 μM with 1 ng/ml PDGF-BB and 0.5 U/ml heparin) was 220 CPM and the “3H Thymidine … (-) Heparin” value ([3]; 25 μM with 1 ng/ml PDGF-BB) was 334 CPM. The “3H Thymidine … (+) 0.5 U/ml Heparin” value ([3]; 50 μM with 1 ng/ml PDGF-BB and 0.5 U/ml heparin) was 211 CPM, the “3H Thymidine … (-) Heparin” value ([3]; 50 μM with 1 ng/ml PDGF-BB) was 309 CPM and the “Effect of adding heparin to the compound on [3H] thymidine incorporation (in words)” value ([3]; 0.5 U/ml unfractionated heparin, 1 ng/ml PDGF-BB) was “further inhibition”. For the same molecule, the IC50 ([3]; Papio anubis, 20 h, read-out: ED50 for the inhibition of PDGF-BB mitogenic activity) was roughly 12.5 µM.
